# Assay results as given in ChEMBL document CHEMBL5325418, “Studies on diketopiperazine and dipeptide analogs as opioid receptor ligands” (Eur J Med Chem, 2023).
# Target: Mu-type opioid receptor (Homo sapiens, UniProt P35372)
# Test: Displacement of [3H]DAMGO from human MOR expressed in CHO cell membranes assessed as inhibition constant incubated for 60 mins by microbeta 2 scintillation counting method
# Parameters: species or system Cell membrane
# Conditions: not given
# Mu-type opioid receptor, sequence (P35372 whole entry): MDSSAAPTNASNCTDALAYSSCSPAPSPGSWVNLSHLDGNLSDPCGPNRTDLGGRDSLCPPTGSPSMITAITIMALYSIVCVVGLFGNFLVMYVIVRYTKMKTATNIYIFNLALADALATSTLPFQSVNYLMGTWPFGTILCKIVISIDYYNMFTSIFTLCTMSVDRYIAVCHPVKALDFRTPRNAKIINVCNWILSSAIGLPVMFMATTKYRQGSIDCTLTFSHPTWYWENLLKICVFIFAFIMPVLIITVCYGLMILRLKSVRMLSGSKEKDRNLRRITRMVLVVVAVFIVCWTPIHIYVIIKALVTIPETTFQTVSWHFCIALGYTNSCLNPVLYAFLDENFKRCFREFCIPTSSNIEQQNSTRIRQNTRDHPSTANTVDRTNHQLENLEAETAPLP
row,Compound,Ki [µM]
1,COc1cccc(CC2NC(=O)CN(CC=C(C)C)C2=O)c1I (stereo unspecified),> 10
2,COC(=O)C(Cc1cccc(OC)c1I)NC(=O)CCNCc1ccccc1 (stereo unspecified),> 10
3,COc1cc(CC2NC(=O)CN(Cc3ccccc3)C2=O)c(I)c(OC)c1 (stereo unspecified),> 10
4,COC(=O)C(Cc1cccc(OC)c1I)NC(=O)CN(Cc1ccccc1)C(=O)OC(C)(C)C (stereo unspecified),> 10
5,COC(=O)C(Cc1cccc(OC)c1I)NC(=O)CN(C)C(=O)OC(C)(C)C (stereo unspecified),> 10
6,COc1cccc(CC2NC(=O)CCN(Cc3ccccc3)C2=O)c1I (stereo unspecified),> 10
7,COC(=O)C(Cc1cccc(OC)c1I)NC(=O)CN (stereo unspecified),> 10
8,COC(=O)C(Cc1cccc(OC)c1I)NC(=O)CCCc1ccccc1 (stereo unspecified),> 10
9,COC(=O)C(Cc1cccc(OC)c1I)NC(=O)CNCCc1ccccc1 (stereo unspecified),> 10
10,COc1cccc(CC2NC(=O)CN(Cc3cccnc3)C2=O)c1I (stereo unspecified),> 10

# Tested on: not listed separately
# Test: Metabolic stability in human plasma assessed as half life at 100 uM measured upto 24 hrs by LC-MS/MS analysis
# Format: ADME, cell-free
# Conditions: not given
row,Compound,half-life at 100 µM [h]
1,COc1cc(CC2NC(=O)CN(Cc3ccccc3)C2=O)c(I)c(OC)c1 (stereo unspecified),> 24

# Tested on: not listed separately
# Test: Plasma protein binding in mouse assessed as bound fraction at 1 uM by LC-MS/MS analysis
# Format: ADME, cell-free
# Conditions: not given
row,Compound,PPB [%]
1,COc1cc(CC2NC(=O)CN(Cc3ccccc3)C2=O)c(I)c(OC)c1 (stereo unspecified),91.69

# Tested on: not listed separately
# Test: Plasma protein binding in human assessed as bound fraction at 1 uM by LC-MS/MS analysis
# Format: ADME, cell-free
# Conditions: not given
row,Compound,PPB [%]
1,COc1cc(CC2NC(=O)CN(Cc3ccccc3)C2=O)c(I)c(OC)c1 (stereo unspecified),95.95

# Tested on: not listed separately
# Test: Metabolic stability in Sprague-Dawley rat plasma assessed as half life at 100 uM measured upto 24 hrs by LC-MS/MS analysis
# Format: ADME, cell-free
# Conditions: not given
row,Compound,half-life at 100 µM [h]
1,COc1cc(CC2NC(=O)CN(Cc3ccccc3)C2=O)c(I)c(OC)c1 (stereo unspecified),> 24

# Tested on: not listed separately
# Test: Plasma protein binding in dog assessed as bound fraction at 1 uM by LC-MS/MS analysis
# Format: ADME, cell-free, Canis lupus familiaris
# Conditions: not given
row,Compound,PPB [%]
1,COc1cc(CC2NC(=O)CN(Cc3ccccc3)C2=O)c(I)c(OC)c1 (stereo unspecified),89.68

# Tested on: not listed separately
# Test: Plasma protein binding in rat assessed as bound fraction at 1 uM by LC-MS/MS analysis
# Format: ADME, cell-free
# Conditions: not given
row,Compound,PPB [%]
1,COc1cc(CC2NC(=O)CN(Cc3ccccc3)C2=O)c(I)c(OC)c1 (stereo unspecified),93.99

# Tested on: BEND3
# Test: Apparent permeability coefficient of the compound across blood brain barrier in mouse BEND3 cells at 10 ug/ml measured upto 120 mins by LC-MS/MS analysis
# Format: functional, cell-based
# Conditions: dose 10.0 µg/ml
row,Compound,Pe
1,COc1cc(CC2NC(=O)CN(Cc3ccccc3)C2=O)c(I)c(OC)c1 (stereo unspecified),9.68 10^-3cm/min

# Tested on: not listed separately
# Test: Metabolic stability in Beagle dog plasma assessed as half life at 100 uM measured upto 24 hrs by LC-MS/MS analysis
# Format: ADME, cell-free, Canis lupus familiaris
# Conditions: Beagle
row,Compound,half-life at 100 µM [h]
1,COc1cc(CC2NC(=O)CN(Cc3ccccc3)C2=O)c(I)c(OC)c1 (stereo unspecified),> 24

# Target: Delta-type opioid receptor (Homo sapiens, UniProt P41143)
# Test: Displacement of [3H]DADLE from human DOR expressed in CHO cell membranes assessed as inhibition constant incubated for 60 mins by microbeta 2 scintillation counting method
# Parameters: species or system Cell membrane
# Conditions: not given
# Delta-type opioid receptor, sequence (P41143 whole entry): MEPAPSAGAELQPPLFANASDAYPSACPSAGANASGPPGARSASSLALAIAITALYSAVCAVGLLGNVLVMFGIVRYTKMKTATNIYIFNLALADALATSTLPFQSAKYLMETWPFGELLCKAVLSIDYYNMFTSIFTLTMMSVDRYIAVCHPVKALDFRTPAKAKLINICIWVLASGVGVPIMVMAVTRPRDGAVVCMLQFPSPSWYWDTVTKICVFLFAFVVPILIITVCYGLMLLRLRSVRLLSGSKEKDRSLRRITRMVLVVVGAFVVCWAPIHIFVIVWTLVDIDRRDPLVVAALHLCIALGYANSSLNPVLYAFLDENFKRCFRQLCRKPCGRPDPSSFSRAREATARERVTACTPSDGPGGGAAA
row,Compound,Ki [µM]
1,COc1cccc(CC2NC(=O)CN(CC=C(C)C)C2=O)c1I (stereo unspecified),> 10
2,COC(=O)C(Cc1cccc(OC)c1I)NC(=O)CCNCc1ccccc1 (stereo unspecified),> 10
3,COc1cc(CC2NC(=O)CN(Cc3ccccc3)C2=O)c(I)c(OC)c1 (stereo unspecified),> 10
4,COC(=O)C(Cc1cccc(OC)c1I)NC(=O)CN(Cc1ccccc1)C(=O)OC(C)(C)C (stereo unspecified),> 10
5,COC(=O)C(Cc1cccc(OC)c1I)NC(=O)CN(C)C(=O)OC(C)(C)C (stereo unspecified),> 10
6,COc1cccc(CC2NC(=O)CCN(Cc3ccccc3)C2=O)c1I (stereo unspecified),> 10
7,COC(=O)C(Cc1cccc(OC)c1I)NC(=O)CN (stereo unspecified),> 10
8,COC(=O)C(Cc1cccc(OC)c1I)NC(=O)CCCc1ccccc1 (stereo unspecified),> 10
9,COC(=O)C(Cc1cccc(OC)c1I)NC(=O)CNCCc1ccccc1 (stereo unspecified),> 10
10,COc1cccc(CC2NC(=O)CN(Cc3cccnc3)C2=O)c1I (stereo unspecified),> 10

# Tested on: not listed separately
# Test: Metabolic stability in CD-1 mouse plasma assessed as half life at 100 uM measured upto 24 hrs by LC-MS/MS analysis
# Format: ADME, cell-free
# Conditions: not given
row,Compound,half-life at 100 µM [h]
1,COc1cc(CC2NC(=O)CN(Cc3ccccc3)C2=O)c(I)c(OC)c1 (stereo unspecified),> 24

# Species: Homo sapiens
# Test: Selectivity ratio of Ki for displacement of [3H]DADLE from human DOR expressed in CHO cell membranes to Ki for displacement of [3H]U69593 from human KOR expressed in HEK cell membranes
# Conditions: not given
row,Compound,Ratio Ki
1,COC(=O)C(Cc1cccc(OC)c1I)NC(=O)CCNCc1ccccc1 (stereo unspecified),> 8
2,COc1cc(CC2NC(=O)CN(Cc3ccccc3)C2=O)c(I)c(OC)c1 (stereo unspecified),> 20
3,COC(=O)C(Cc1cccc(OC)c1I)NC(=O)CNCCc1ccccc1 (stereo unspecified),> 12

# Target: Kappa-type opioid receptor (Homo sapiens, UniProt P41145)
# Test: Displacement of [3H]U69593 from human KOR expressed in HEK cell membranes assessed as inhibition constant incubated for 60 mins by microbeta 2 scintillation counting method
# Parameters: species or system Cell membrane
# Conditions: not given
# Kappa-type opioid receptor, sequence (P41145 whole entry): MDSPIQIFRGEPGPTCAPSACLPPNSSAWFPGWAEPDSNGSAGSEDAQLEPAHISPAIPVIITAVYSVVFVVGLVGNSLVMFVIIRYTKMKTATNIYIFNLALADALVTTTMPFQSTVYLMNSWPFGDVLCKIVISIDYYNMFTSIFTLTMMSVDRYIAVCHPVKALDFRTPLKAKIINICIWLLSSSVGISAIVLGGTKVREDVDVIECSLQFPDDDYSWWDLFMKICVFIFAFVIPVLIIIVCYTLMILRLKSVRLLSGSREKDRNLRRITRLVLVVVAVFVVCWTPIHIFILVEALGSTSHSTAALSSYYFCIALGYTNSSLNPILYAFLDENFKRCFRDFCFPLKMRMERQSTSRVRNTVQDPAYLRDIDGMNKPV
row,Compound,Ki [µM]
1,COc1cccc(CC2NC(=O)CN(CC=C(C)C)C2=O)c1I (stereo unspecified),> 10
2,COC(=O)C(Cc1cccc(OC)c1I)NC(=O)CCNCc1ccccc1 (stereo unspecified),1.23
3,COc1cc(CC2NC(=O)CN(Cc3ccccc3)C2=O)c(I)c(OC)c1 (stereo unspecified),0.51
4,COC(=O)C(Cc1cccc(OC)c1I)NC(=O)CN(Cc1ccccc1)C(=O)OC(C)(C)C (stereo unspecified),> 10
5,COC(=O)C(Cc1cccc(OC)c1I)NC(=O)CN(C)C(=O)OC(C)(C)C (stereo unspecified),> 10
6,COc1cccc(CC2NC(=O)CCN(Cc3ccccc3)C2=O)c1I (stereo unspecified),> 10
7,COC(=O)C(Cc1cccc(OC)c1I)NC(=O)CN (stereo unspecified),> 10
8,COC(=O)C(Cc1cccc(OC)c1I)NC(=O)CCCc1ccccc1 (stereo unspecified),> 10
9,COC(=O)C(Cc1cccc(OC)c1I)NC(=O)CNCCc1ccccc1 (stereo unspecified),0.802
10,COc1cccc(CC2NC(=O)CN(Cc3cccnc3)C2=O)c1I (stereo unspecified),> 10

# Tested on: not listed separately
# Test: Metabolic stability in Sprague-Dawley rat liver microsomes assessed as intrinsic clearance at 100 uM measured upto 24 hrs in presence of NADPH by LC-MS/MS analysis
# Format: ADME, Microsome
# Conditions: not given
row,Compound,Intrinsic clearance [µL/min/mg]
1,COc1cc(CC2NC(=O)CN(Cc3ccccc3)C2=O)c(I)c(OC)c1 (stereo unspecified),390.5

# Species: Homo sapiens
# Test: Selectivity ratio of Ki for displacement of [3H]DAMGO from human MOR expressed in CHO cell membranes to Ki for displacement of [3H]U69593 from human KOR expressed in HEK cell membranes
# Conditions: not given
row,Compound,Ratio Ki
1,COC(=O)C(Cc1cccc(OC)c1I)NC(=O)CCNCc1ccccc1 (stereo unspecified),> 8
2,COc1cc(CC2NC(=O)CN(Cc3ccccc3)C2=O)c(I)c(OC)c1 (stereo unspecified),> 20
3,COC(=O)C(Cc1cccc(OC)c1I)NC(=O)CNCCc1ccccc1 (stereo unspecified),> 12
